Laboratory results taken from ChEMBL document CHEMBL3507680, “University of Dundee, Gates Library screen for HepG2 cell viability”.

Assay: Human HepG2 cell viability assay in 384 well format
Type: toxicity, cell-based
Set-up: dose 125 nL, time 70.5 hour; cytotoxicity at 70.5 h: concentration not given beside the values
Conditions: HepG2 cells, read-out: Inhibition

Compound | cytotoxicity at 70.5 h [%]
CC(=O)Nc1ccc(Cl)c(C(=O)N(C)C(C)c2ccon2)c1 (stereo unspecified) | 5
COc1ccc(NC(=O)N2CCC3(CC2)NC(=O)CC3C(=O)O)c(C)c1 (stereo unspecified) | -1.09
Cc1ccccc1CCCN(Cc1ccccn1)S(C)(=O)=O | -0.248
O=C1CNc2ncnc(N3CCN(Cc4cccc(F)c4)CC3)c2N1 | 17.9
COc1cccc(NC(=O)CN2CCN(S(C)(=O)=O)CC2)c1 | -8.85
CCN1C(=O)C2(CCCCC2)NC1c1cc(C#N)n(C)c1C (stereo unspecified) | -8.35
O=C(CCn1cncn1)N1C[C@H]2CC[C@@H]1CN(Cc1ccncc1)C2 | 16.7
c1ccc(CCNCC2Cn3nncc3CO2)cc1 (stereo unspecified) | -0.333
O=C(CN1CCC(c2cc(=O)n3c(n2)CCCCC3)CC1)N1CCCC1 | 1.49
Cc1nn(C)c(C)c1C1CCCN1C(=O)c1ccc(NC2CC2)nc1 (stereo unspecified) | -17.5
Cc1cccc(Oc2ccccc2CNC(=O)C2CCNC(=O)C2)c1 (stereo unspecified) | -6.18
Cn1ccc(C(=O)NC2CCC23CCN(Cc2cnn(C)c2)CC3)c1 (stereo unspecified) | -1.29
COc1ccc(C(=O)N2CCCC(NC(=O)C(C)C)C2)c(O)c1 (stereo unspecified) | 2.73
CC(C)NC1CC2(CCNCC2)c2cc(F)ccc21 (stereo unspecified) | -2.34
CC[C@H](C)[C@H](N)C(=O)N1CC(=O)c2sc(NC3CCCCC3)nc2C1 | 3.97
Cc1cc(NC(=O)CN2CCn3c(nnc3-c3ccccc3)C2)no1 | -1.17
c1cncc(COCc2nnn3c2CN(Cc2ccsc2)CC3)c1 | -2.9
CN1CCOC2(CCCN(C(=O)C3CCCCC3)C2)C1 (stereo unspecified) | 34.5
CCc1nnsc1C(=O)N(C)Cc1nnc2n1CCC2 | 5.35
CC(=O)N1CCC2(C1)c1ccccc1S(=O)(=O)N2CCC(C)C (stereo unspecified) | -11.2
CCN(Cc1cnn(C)c1)S(=O)(=O)c1ccc(NC(C)=O)cc1 | 9.84
COc1cc2cc3c(nc2cc1OC)OCCN(CC1CC1)C3 | -2.88
CNC(=O)c1sc(C2CCCC2)nc1C | -5.12

Compound | cytotoxicity at 70.5 h [%]
CC(C)(C)OC(=O)NCC1CCN(C(=O)c2ccccc2O)C1 (stereo unspecified) | -0.832
CSCCNC(=O)c1cc(Br)cn1C(C)C | -1.74
CCOc1ccc(CN2CCCC(c3nn(C)c(=O)n3CC)C2)cn1 (stereo unspecified) | -6.89
Cc1sc2nc(CCN)nc(N(CCN(C)C)CC3CCCO3)c2c1C (stereo unspecified) | 5.16
Cc1cc(C2CCCN(CCNS(=O)(=O)c3ccccc3)C2)n[nH]1 (stereo unspecified) | 24.5
Cc1cc(N(C)C)nc(C2COCCN2Cc2csc(C)n2)n1 (stereo unspecified) | 10.4
Cc1nc(CCNC(=O)C2CC(=O)N(C(C)(C)C)C2)sc1Cl (stereo unspecified) | 4.69
Cc1cccc(N(CCC(N)=O)C(=O)c2ccnc(C)n2)c1 | -13.8
O=C(NC[C@]12COC[C@H]1CN(Cc1nccs1)C2)c1cscn1 | -3.54
CN(C)Cc1cnc(C2CCN(C(=O)c3cc(F)cc(F)c3)C2)[nH]1 (stereo unspecified) | -2.53
CN(C)C(=O)c1ccccc1NC(=O)N[C@@H]1c2ccccc2C[C@@H]1O | 0.722
CS(=O)(=O)Cc1cccc(C(=O)N2CCCC(n3cccn3)C2)c1 (stereo unspecified) | 17.8
Cc1nc(CN2CCOCC3(CCN(c4cccnc4)CC3)C2)cs1 | 2.23
O=C(C1CC(=O)N(c2ccccc2Br)C1)N1CCN(CC(F)(F)F)CC1 (stereo unspecified) | -8.32
COCCOc1ccc(CNc2nc3ccccc3nc2N)cn1 | -3.46
Cc1nc(C(=O)N2CCN(S(C)(=O)=O)[C@@H]3CS(=O)(=O)C[C@@H]32)cs1 | 1.07
CCC1=N[C@@]2(CC[C@@H]3CN(CC4CC4)C[C@@H]32)C(=O)N1CC1CC1 | -20.5
Cc1ccc(OCc2cccc(C(=O)N(C)CCC#N)c2)cn1 | 0.941
O=C(N[C@@H]1CCN(C(=O)C2CCOCC2)C[C@H]1O)c1ccccn1 | -4.74
N#Cc1ccc(OCCCN2CCOC(Cn3cncn3)C2)cc1 (stereo unspecified) | 32.1
Cn1nc2c(c1NC(=O)c1cccs1)CCC2 | -12.2
COc1c(C)cnc(CN(C)C2CCN(C3CCOCC3)CC2)c1C | -0.744
CCn1c(C)nnc1SCCNc1nc(C)nc2ncccc12 | -15.7

Compound | cytotoxicity at 70.5 h [%]
Cc1noc(C(C)C)c1C(=O)NCCCN1CCNCC1 | -7.14
CC(C)c1nnc(CN2C(=O)OC[C@@H]2C(C)C)o1 | -5.17
c1csc(CN2CCc3onc(Cn4cccc4)c3C2)c1 | 2.81
CCN(CC)S(=O)(=O)c1ccc(C(=O)NC(C)(C)C)cc1 | 35.7
CS(=O)(=O)N1C[C@H](C(=O)Nc2cccnc2)C[C@H]2OCC[C@H]21 | 6.21
c1cc(C2CCCN2CC2CCCCC2)n[nH]1 (stereo unspecified) | -8.35
c1ccc(-c2nc(CCNCc3cccnc3)co2)cc1 | -4.67
CCC(=O)c1ccc(OCC(=O)N2CCNCC2C(=O)NC2CC2)cc1 (stereo unspecified) | -9.05
O=C(N[C@@H]1CN(C2CCCC2)C[C@@H]2CCCO[C@@H]21)c1cnccn1 | -12.5
CS(=O)(=O)CCC(=O)N1CCC(c2cccc(F)c2)C1 (stereo unspecified) | 5.28
CCc1nnc2n1CCN(C(=O)c1ccc(-c3ccco3)nc1C)C2 | 10
COCCN1CCO[C@@H]2CN(C(=O)NCc3ccccc3)CC[C@@H]2C1 | 2.53
O=C(c1ccco1)N1CCC12CCN(c1ncc(F)cn1)CC2 | 0.431
CNc1cc(C2CCCN2C(=O)CCc2cnn(C)c2C)ccn1 (stereo unspecified) | -8.49
Cc1nc(CN2CCC3(CCCN(Cc4cnn(C)c4)C3)C2=O)cs1 (stereo unspecified) | 0.731
CC1CN(CC(=O)NCc2ccccn2)CCN1Cc1nccn1C (stereo unspecified) | -3.22
Cc1ncsc1CN1C[C@H](C(=O)N2CCCO2)[C@@H]2CCO[C@@H]2C1 | -0.785
CCc1nccn1C1CCCN(C(=O)CCCc2ccccn2)C1 (stereo unspecified) | -2.48
COc1cccc2c1ccn2CCC(=O)Nc1c2c(nn1C)CSC2 | -11.9
Cc1ccc(-c2nc(CNC(C)CCO)[nH]c2-c2ccccn2)cc1 (stereo unspecified) | 1.74
Cc1nn(C)c2ncnc(N3CCCC(C)(O)C3)c12 (stereo unspecified) | -6.93
O=C(COCC1CCCCO1)N1CCN(Cc2ccccc2F)C(=O)C1 (stereo unspecified) | -1.62
Cc1nc2ccc(C(=O)N3C[C@@H](O)[C@H](N4CCN(C)CC4)C3)cc2[nH]1 | -4.75

Compound | cytotoxicity at 70.5 h [%]
COCCN1CC2(CCOCC2)c2cc(NC(=O)C3CC=CC3)ccc21 | 28.4
CNC(=O)[C@@H]1C[C@H](n2cc(-c3ccc(CN4CC=CC4)cc3)nn2)CN1 | 27
Cc1ccc(CN2Cc3ccnn3CC(COCc3cccnc3)C2)o1 (stereo unspecified) | -5.79
O=C(c1cnco1)N1CCC(Cc2cnc3ccccc3c2)CC1 | -1.49
Cc1ccc(C2CSCCN2C(=O)c2cccnc2)cc1 (stereo unspecified) | -9.38
Cc1cc(N2CC(c3n[nH]c4nccnc34)C2)ncn1 | -9.37
C[C@]1(O)CCN(Cc2c[nH]cn2)C[C@@H]1Oc1cccc(F)c1 | -7.83
Cc1noc(CN2CC=C(c3cnn(C4CCS(=O)(=O)C4)c3)CC2)n1 (stereo unspecified) | 27.9
CN(C)Cc1nnc(C2CCCN(c3cc(C(F)(F)F)ccn3)C2)n1C (stereo unspecified) | -11.1
Cn1cc(CN2C[C@@H]3CN(C(=O)c4cccn4C)CCO[C@@H]3C2)cn1 | -2.93
CCCn1cc(CN2CCCC2c2nccc(CN(C)C)n2)cn1 (stereo unspecified) | 21.3
Cc1nc(SCC(=O)Nc2ccc(C(N)=O)cc2)c(C#N)c(C)c1C | 4.83
CN(C)C(=O)N1CCc2c(nnn2C)C1COCC1CC1 (stereo unspecified) | -2.28
Cc1cccnc1N1CC2(CCN(Cc3cccnc3)C2)C1 | 16.3
Cc1cccc(C(=O)N2CCn3c(CN4CCN(C)CC4)cnc3C2)n1 | -7.95
O=C(c1cc(C2CC2)nc2onc(-c3ccccc3)c12)N1CC[C@H](O)C1 | -4.91
CSc1nc(N)cc(N2C[C@@H]3CC[C@H](C2)N(Cc2cscn2)C3=O)n1 | 7.64
CCC[C@H]1CN(S(=O)(=O)c2cc(C)ccc2C)C[C@@H]1N | -0.438
CCOCC(O)CN1CCN(C(=O)Cc2ccccc2Cl)CC1 (stereo unspecified) | -0.667
CC(=O)c1cccc(NC(=O)N2CCCCC2CN2CCCC2=O)c1 (stereo unspecified) | -7.82
CCc1nc2ccccc2n1C(CC)C(=O)N(C)Cc1nc(C)c[nH]1 (stereo unspecified) | 21.7
CC(C)N1Cc2cccc(NCC(=O)N(C)C)c2C1 | -2.57
Cc1nc(C)n(C2CCCN(C(=O)c3ccc(CN(C)C)cc3)C2)n1 (stereo unspecified) | -4.23

Compound | cytotoxicity at 70.5 h [%]
CC(C)CNC(=O)C1(Cc2ccccc2-c2cccs2)CCNC1 (stereo unspecified) | -0.684
CCS(=O)(=O)NCCNC(C)(C)c1nc(C)cs1 | -2.97
Cc1ccc(C)c(C(=O)N2CCOC(CCN(C)C)C2)c1 (stereo unspecified) | -9.2
CCCN1CCC(Nc2nc(C)ns2)CC1 | -8.37
Cn1nc(C(=O)NCc2cccc(Cn3ccnc3)c2)ccc1=O | 3.47
COc1c(CNCCNC(=O)c2ccccc2)c(C)nn1C | -1.1
CCC(NS(=O)(=O)N1CCOCC1)c1ccccc1OC (stereo unspecified) | -2.95
CN1C(=O)CCCC12CCCN(C(=O)c1cccc(C(F)(F)F)c1)C2 (stereo unspecified) | -6.35
CC1CCc2sc(C(=O)Nc3cnn(C)c3)cc2C1 (stereo unspecified) | -2.28
COc1ccc2c(c1)OCC(Cc1cnccc1N)C2 (stereo unspecified) | -3.68
COCCN1CCCC1c1ccnc(-c2ccccc2)n1 (stereo unspecified) | -4.49
Cc1cccc(CN2C[C@@H]3[C@@H](C(=O)NCC(C)C)CCS(=O)(=O)[C@@H]3C2)c1 | -6.13
CC(C)c1cc(NC(=O)CN2CCCC2Cn2cccn2)on1 (stereo unspecified) | -1.57
O=C(c1cc(F)ccc1O)N1CCN(C2CCOCC2)CC1 | 0.856
CCOc1cccc(COC(=O)c2ccc(Cl)cn2)n1 | -8.76
COc1ccc(N2CCN(C(=O)Cn3nc(C)c(Cl)c3C)CC2)cc1 | 4.1
CCC(=O)N1CCC2(CC1)CC(CC(N)=O)c1ccc(F)cc12 (stereo unspecified) | -7.49
CCCOC1CCCN(C(=O)c2ccnnc2)C1 (stereo unspecified) | -2.27
Cc1ccc(OC2(C(=O)O)CCN(C/C=C/c3ccco3)CC2)c(C)n1 | -7.06
